Reference: article PMC5719431, “Structural insights into the potency of SK channel positive modulators” (Scientific Reports, 2017)

What was measured:
[1] = target: T1, SK2-a channel (SK2, KCa2.2) co-expressed with CaM (Rattus norvegicus, UniProt P0DP29+P70604); experiment: inside-out patch clamp, potentiation of SK2 current; assay type: cell-based
T1 construct: gene Kcnn2; full-length SK2-a co-transfected with CaM and GFP in TsA201 cells; tetrameric channel

[2] = target: T2, CaM/CaMBD complex (CaM and SK2 channel fragment R395–Q486) (Rattus norvegicus, UniProt P0DP29+P70604); experiment: X-ray crystal structure (soaked crystals); assay type: binding; conditions: Ca2+-CaM, site at interface of CaMBD and CaM N-lobe
T2 construct: gene Kcnn2; both expressed in E. coli Rosetta-2
T2 sequence (P70604 396-487, one chain of several): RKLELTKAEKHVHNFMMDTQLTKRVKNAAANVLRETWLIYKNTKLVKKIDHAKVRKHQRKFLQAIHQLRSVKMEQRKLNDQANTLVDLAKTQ

T1 sequence (P70604 whole entry, one chain of several): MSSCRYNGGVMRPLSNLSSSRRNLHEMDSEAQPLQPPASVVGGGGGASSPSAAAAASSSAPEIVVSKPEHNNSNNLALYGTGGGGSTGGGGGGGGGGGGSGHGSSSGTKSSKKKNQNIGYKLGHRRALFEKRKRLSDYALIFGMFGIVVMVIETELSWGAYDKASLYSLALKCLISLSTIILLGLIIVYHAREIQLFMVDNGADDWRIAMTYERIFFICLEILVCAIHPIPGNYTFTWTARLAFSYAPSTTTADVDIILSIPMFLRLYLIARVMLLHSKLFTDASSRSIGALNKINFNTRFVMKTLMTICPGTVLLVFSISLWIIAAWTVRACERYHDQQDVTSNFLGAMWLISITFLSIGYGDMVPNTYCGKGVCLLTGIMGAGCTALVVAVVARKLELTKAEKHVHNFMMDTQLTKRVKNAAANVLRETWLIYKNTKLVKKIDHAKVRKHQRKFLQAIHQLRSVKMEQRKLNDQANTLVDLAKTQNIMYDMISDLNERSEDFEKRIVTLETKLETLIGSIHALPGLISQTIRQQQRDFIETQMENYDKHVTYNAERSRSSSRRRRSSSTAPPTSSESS

O=C1Nc2c(ccc(Cl)c2Cl)C1=NO [NS309]
EC50 [1]: 0.552 ± 0.083 µM

Cc1cc2c(cc1Br)NC(=O)C2=NO [SKS-11, 6-bromo-5-methyl-1H-indole-2,3-dione-3-oxime]
X-ray crystal structure (soaked crystals) ([2]; soaked about 1 month): crystal structures of SKS-11 and SKS-14 in complex with their binding pocket
EC50 [1]: 3.87 ± 0.88 µM

O=C1Nc2c(F)cccc2C1=NO [SKS-14, 7-fluoro-3-(hydroxyimino)indolin-2-one]
X-ray crystal structure (soaked crystals) ([2]; soaked about 5 months): crystal structures of SKS-11 and SKS-14 in complex with their binding pocket
EC50 [1]: 33.2 ± 4.8 µM
